This note sets out measurements from patent US20260026479A1, “GENETICALLY ENGINEERED MICE MODELS FOR MULTIPLE MYELOMA” (FUNDACIÓN PARA LA INVESTIGACIÓN MÉDICA APLICADA, priority 2022, published 2026).

For one experiment, the system named is murine MM cells. The experiment can be described thus: In vitro viability assay, murine MM-derived cell lines. Format: cell-based, mouse. The note with it: 48 hours, Deep Blue Cell Viability Kit. As to the method: (§1) Mice were monitored twice weekly for signs of disease and were then sacrificed. […] The samples that were able to grow for weeks ex vivo were tested for the presence of the original transgenic lesions and then characterized. Eight MM-derived cells lines established from mice carrying different lesions. In vitro therapy assays. For viability assays, murine or human MM cells were seeded in 96-well black culture plates and treated with different drugs alone or in combination for 48 hours. Cell viability was quantified using a Deep Blue Cell Viability™ Kit (Biolegend) and analyzed with a Skanit Varioskan Flash 2.4.3 (Thermo Scientific) fluorometer. Treatments were administered to cells at a density of 0.3×10^6 cells/ml, and all tests were performed in triplicate. After treatment, cells were subjected to qRT-PCR or Western blot analyses, as indicated, according to previously reported methods.

Experiment [1] relates to MYC. The experiment can be described thus: MYC expression and phosphorylation after treatment (Western blot, qRT-PCR), mouse MM cell lines. The experiment is classed as cell-based. As to the method:
(§2) A total of 1 μg of total RNA from GFP^+-sorted cells was isolated with a NucleoSpin RNA kit (Macherey-Nagel) and reverse transcribed into cDNA using MMLV enzyme technology (Invitrogen). PCR was performed on an ABI Viia7 instrument using SYBR green fluorophore and primers designed to amplify specific mouse or human genes. Specific primers are listed in the Key Resources Table.
as §1

The next experiment relates to human MM cells. Kind of experiment: In vitro viability assay, human MM cell lines. The following applies: 48 hours, Deep Blue Cell Viability Kit. The experiment is classed as cell-based. As to the method:
(§3) Ten cell lines derived from MM patients (RPMI8226, KMS12, KMS26, KMS11, MM1S, U266, K620, JJN3, H929, and MOLP2) were included in this study. All have been validated according to the AmpFLSTR® Identifiler®, were tested for Mycoplasma sp.
as §1

In experiment [2] the target is T1, MYC (Homo sapiens, UniProt P01106).
T1 construct: Western blot analysis of MYC protein expression in human MM cell lines; endogenous in cells; host or cells: human MM cell lines (of RPMI8226, KMS12, KMS26, KMS11, MM1S, U266, K620, JJN3, H929, MOLP2)
T1 sequence (P01106 whole entry): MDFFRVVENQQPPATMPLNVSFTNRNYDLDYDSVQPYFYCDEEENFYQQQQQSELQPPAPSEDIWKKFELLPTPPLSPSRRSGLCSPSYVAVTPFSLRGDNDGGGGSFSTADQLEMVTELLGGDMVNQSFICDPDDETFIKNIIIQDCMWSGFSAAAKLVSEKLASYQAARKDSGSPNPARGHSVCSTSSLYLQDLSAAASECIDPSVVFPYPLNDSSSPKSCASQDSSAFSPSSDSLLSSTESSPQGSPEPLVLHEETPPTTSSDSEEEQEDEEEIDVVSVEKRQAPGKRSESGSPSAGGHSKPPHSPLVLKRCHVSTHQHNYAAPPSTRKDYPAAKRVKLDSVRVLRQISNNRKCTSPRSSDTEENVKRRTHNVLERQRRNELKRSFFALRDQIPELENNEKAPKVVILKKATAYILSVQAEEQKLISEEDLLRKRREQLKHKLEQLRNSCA
Kind of experiment: MYC expression and phosphorylation after treatment (Western blot, qRT-PCR), human MM cell lines. Format: cell-based. As to the method:
as §2, §3
as §1, with “After treatment, cells were subjected to qRT-PCR or Western blot analyses, as indicated, according to previously reported methods.” left out
A general note: In western blotting, separated proteins are transferred to a membrane and probed.

Take MYCi975: the MM cell viability result in the experiment on murine MM cells and with human MM cells was “decreased viability” throughout. Further, the MYC protein expression entry in the experiment with MYC [1] and at MYC [2] was “dose-dependent MYC protein reduction” throughout.
